In patent publication US20140296212A1, “SUBSTITUTED PHENOXYPROPYLCYCLOAMINE DERIVATIVES AS HISTAMINE-3 (H3) RECEPTOR LIGANDS” (CEPHALON, INC., priority 2009, published 2014):

Biological target: T1, rat histamine H3 receptor (Rattus norvegicus, UniProt Q9QYN8)
T1 construct: encoding the entire 445-amino-acid rat histamine H3 receptor; expressed in transfected cells
Assay: Rat H3 radioligand binding ([3H]-N-alpha-methylhistamine, SPA)
Conditions: not given
Text: The rat H3 receptor cDNA was PCR amplified from reverse-transcribed RNA pooled from rat thalamus, hypothalamus, striatum and prefrontal cortex with a sequence corresponding to by #338-1672 of Genbank file #NM_053506, encoding the entire 445-amino-acid rat histamine H3 receptor. This was engineered into the pIRES-neo3 mammalian expression vector, which was stably transfected into the CHO-A3 cell line (Euroscreen, Belgium), followed by clonal selection by limiting dilution. Cells were harvested and cell pellets were frozen (−80° C.). Cell pellets were resuspended in 5 mM Tris-HCl, pH 7.5 with 5 nM EDTA and a cocktail of protease inhibitors (Complete Protease Inhibitor Tablets, Roche Diagnostics). Cells were disrupted using a polytron cell homogenizer and the suspension was centrifuged at 1000×g for 10 minutes at 4° C. The pellet was discarded and the supernatant centrifuged at 40,000×g for 30 min at 4° C. This membrane pellet was washed in membrane buffer containing 50 mM Tris-HCl, pH 7.5 with 0.6 mM EDTA, 5 mM MgCl2 and protease inhibitors, recentrifuged as above and the final pellet resuspended in membrane buffer plus 250 mM sucrose and frozen at −80° C.
(§1) Membranes were resuspended in 50 mM Tris HCl (pH 7.4), 5 mM MgCl2, 0.1% BSA. The membrane suspensions (10 μg protein per well) were incubated in a 96 well microtiter plate with [^3H]-N-alpha-methylhistamine (approximately 1 nM final concentration), test compounds at various concentrations (0.01 nM-30 μM) and scintillation proximity beads (Perkin Elmer, FlashBlueGPCR Scintillating Beads) in a final volume of 80 μl for 4 hours at room temperature, protected from light. Non-specific binding was determined in the presence of 10 μM clobenpropit. Radioligand bound to receptor, and therefore in proximity to the scintillation beads, was measured using a MicroBeta scintillation counter.

T1 sequence (Q9QYN8 whole entry): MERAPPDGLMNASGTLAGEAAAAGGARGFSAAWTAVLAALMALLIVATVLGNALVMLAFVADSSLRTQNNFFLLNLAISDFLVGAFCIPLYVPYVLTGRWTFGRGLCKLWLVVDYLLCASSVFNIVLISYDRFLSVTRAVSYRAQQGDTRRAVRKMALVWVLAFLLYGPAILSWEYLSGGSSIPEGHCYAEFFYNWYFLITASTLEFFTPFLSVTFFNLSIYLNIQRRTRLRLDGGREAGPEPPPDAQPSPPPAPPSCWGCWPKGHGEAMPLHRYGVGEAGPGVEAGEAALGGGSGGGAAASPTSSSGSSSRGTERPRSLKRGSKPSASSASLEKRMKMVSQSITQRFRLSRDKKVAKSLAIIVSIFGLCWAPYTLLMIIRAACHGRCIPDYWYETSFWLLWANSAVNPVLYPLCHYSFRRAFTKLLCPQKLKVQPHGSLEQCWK

Compound	Ki
C[C@@H]1CCCN1CCCOc1ccc(C(=O)CN2CCOCC2)cc1 [Example 41, 1-{4-[3-((R)-2-Methyl-pyrrolidin-1-yl)-propoxy]-phenyl}-2-morpholin-4-yl-ethanone]	0.1 to 100 nM
C[C@H]1CCCN1CCCOc1ccc(C(=O)CN2CCOCC2)cc1 [Example 42, 1-{4-[3-((S)-2-Methyl-pyrrolidin-1-yl)-propoxy]-phenyl}-2-morpholin-4-yl-ethanone]	501 to 1000 nM
CC1CCCN1CCCOc1ccc(C(=O)CN2CCOCC2)cc1 (stereo not drawn) [Example 1, 1-{4-[3-(2-Methyl-pyrrolidin-1-yl)-propoxy]-phenyl}-2-morpholin-4-yl-ethanone]	0.1 to 100 nM

Same assay, conditions: membranes of CHO-A3 cells expressing rat H3; [3H]-N-alpha-methylhistamine; read-out: Rat H3 Ki

Ki	Compound
0.1 to 100 nM	C[C@@H]1CCCN1CCCOc1ccc(C(=O)C(C)(C)N2CCOCC2)cc1 [Example 54]
0.1 to 100 nM	C[C@@H]1CCCN1CCCOc1ccc(C(=O)CN2CCN(C(=O)c3ccccc3)CC2)cc1 [Example 68, 2-(4-Benzoyl-piperazin-1-yl)-1-{4-[3-((R)-2-methyl-pyrrolidin-1-yl)-propoxy]-phenyl}-ethanone]

Biological target: T2, human H3 receptor (Homo sapiens, UniProt Q9Y5N1)
T2 construct: expressed in transfected cells
T2 sequence (Q9Y5N1 whole entry): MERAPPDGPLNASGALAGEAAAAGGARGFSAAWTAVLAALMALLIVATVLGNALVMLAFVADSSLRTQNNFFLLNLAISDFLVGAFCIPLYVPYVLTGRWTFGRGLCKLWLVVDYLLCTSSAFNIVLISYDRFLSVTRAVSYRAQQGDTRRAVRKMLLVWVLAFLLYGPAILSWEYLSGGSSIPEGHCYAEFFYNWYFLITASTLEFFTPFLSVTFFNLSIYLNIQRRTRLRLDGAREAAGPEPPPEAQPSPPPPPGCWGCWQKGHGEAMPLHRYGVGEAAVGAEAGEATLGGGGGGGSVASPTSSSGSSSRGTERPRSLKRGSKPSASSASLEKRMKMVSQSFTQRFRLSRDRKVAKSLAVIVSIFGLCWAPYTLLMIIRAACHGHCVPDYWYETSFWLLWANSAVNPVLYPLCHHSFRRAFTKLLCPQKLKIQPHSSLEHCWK
Assay: Human H3 radioligand binding ([3H]-N-alpha-methylhistamine, SPA)
Conditions: membranes of CHO cells expressing human H3
Method: Cell pellets were resuspended in 5 mM Tris-HCl, pH 7.5 with 5 nM EDTA and a cocktail of protease inhibitors (Complete Protease Inhibitor Tablets, Roche Diagnostics). Cells were disrupted using a polytron cell homogenizer and the suspension was centrifuged at 1000×g for 10 minutes at 4° C. The pellet was discarded and the supernatant centrifuged at 40,000×g for 30 min at 4° C. This membrane pellet was washed in membrane buffer containing 50 mM Tris-HCl, pH 7.5 with 0.6 mM EDTA, 5 mM MgCl2 and protease inhibitors, recentrifuged as above and the final pellet resuspended in membrane buffer plus 250 mM sucrose and frozen at −80° C.
as §1

Ki	Compound
0.1 to 100 nM	CO/N=C(\CN1CCCCC1)c1ccc(OCCCN2CCC[C@H]2C)cc1 [Example 159]
0.1 to 100 nM	C[C@@H]1CCCN1CCCOc1ccc(C(=O)C(C)(C)N2CCOCC2)cc1 [Example 54]
0.1 to 100 nM	C[C@@H]1CCCN1CCCOc1ccc(C(=O)CN2CCN(C(=O)c3ccccc3)CC2)cc1 [Example 68, 2-(4-Benzoyl-piperazin-1-yl)-1-{4-[3-((R)-2-methyl-pyrrolidin-1-yl)-propoxy]-phenyl}-ethanone]
0.1 to 100 nM	O=C(CN1CCN(c2ccccc2)CC1)c1ccc(OCCCN2CCCC2)cc1 [Example 17, 2-(4-Phenyl-piperazin-1-yl)-1-[4-(3-pyrrolidin-1-yl-propoxy)-phenyl]-ethanone]
0.1 to 100 nM	CC(C(=NOCc1ccccc1)c1ccc(OCCCN2CCCCC2)cc1)N1CCCCC1 (stereo not drawn) [Example 164]
0.1 to 100 nM	CC1CCCCN1CCCOc1ccc(C(=O)CN2CCCCC2)cc1 (stereo not drawn) [Example 10, 1-{4-[3-(2-Methyl-piperidin-1-yl)-propoxy]-phenyl}-2-piperidin-1-yl-ethanone]
0.1 to 100 nM	C[C@@H]1CC[C@@H](C)N1CCCOc1ccc(C(=O)CN2CCCCC2)cc1 [Example 12, 1-{4-[3-((2R,5R)-2,5-Dimethyl-pyrrolidin-1-yl)-propoxy]-phenyl}-2-piperidin-1-yl-ethanone]
0.1 to 100 nM	CO/N=C(/CN1CCCCC1)c1ccc(OCCCN2CCC[C@H]2C)cc1 [Example 161]
0.1 to 100 nM	O=C(CN1Cc2ccccc2C1)c1ccc(OCCCN2CCCCC2)cc1 [Example 6, 2-(1,3-Dihydro-isoindol-2-yl)-1-[4-(3-piperidin-1-yl-propoxy)-phenyl]-ethanone]
0.1 to 100 nM	CC1CCCN1CCCOc1ccc(C(=O)CN2CCN(c3ccccc3)CC2)cc1 (stereo not drawn) [Example 18, 1-{4-[3-(2-Methyl-pyrrolidin-1-yl)-propoxy]-phenyl}-2-(4-phenyl-piperazin-1-yl)-ethanone]
101 to 500 nM	CC(C(=O)c1ccc(OCCCN2CCC[C@@H]2C)cc1)N1CCCCC1=O (stereo partly drawn) [Example 36, 1-(1-Methyl-2-{4-[3-((S)-2-methyl-pyrrolidin-1-yl)-propoxy]-phenyl}-2-oxo-ethyl)-piperidin-2-one]
0.1 to 100 nM	O=C(CN1CCCCC1)c1ccc(OCCCN2CCCCC2)cc1 [Example 2, 2-Piperidin-1-yl-1-[4-(3-piperidin-1-yl-propoxy)-phenyl]-ethanone]
0.1 to 100 nM	C[C@H]1CCCN1CCCOc1ccc(C(=O)CN2CCCCC2)cc1 [Example 13, 1-{4-[3-((S)-2-Methyl-pyrrolidin-1-yl)-propoxy]-phenyl}-2-piperidin-1-yl-ethanone]
0.1 to 100 nM	CC(C)O/N=C(\CN1CCOCC1)c1ccc(OCCCN2CCC[C@H]2C)cc1 [Example 171]
0.1 to 100 nM	CC1CCCN1CCCOc1ccc(/C(CN2CCN(c3ccccc3)CC2)=N/OC(C)(C)C)cc1 (stereo not drawn) [Example 166]
0.1 to 100 nM	CC1CCCC(C)N1CCCOc1ccc(C(=O)CN2CCCCC2)cc1 (stereo not drawn) [Example 11, 1-{4-[3-(2,6-Dimethyl-piperidin-1-yl)-propoxy]-phenyl}-2-piperidin-1-yl-ethanone]
0.1 to 100 nM	C[C@@H]1CCCN1CCCOc1ccc(/C(CN2CCOCC2)=N/OC2CCCCC2)cc1 [Example 170]
0.1 to 100 nM	O=C(CN1CCc2ccccc2C1)c1ccc(OCCCN2CCCC2)cc1 [Example 5, 2-(3,4-Dihydro-1H-isoquinolin-2-yl)-1-[4-(3-pyrrolidin-1-yl-propoxy)-phenyl]-ethanone]
0.1 to 100 nM	O=C(CN1CCCc2ccccc21)c1ccc(OCCCN2CCCCC2)cc1 [Example 7, 2-(3,4-Dihydro-2H-quinolin-1-yl)-1-[4-(3-piperidin-1-yl-propoxy)-phenyl]-ethanone]
0.1 to 100 nM	O=C(CN1CCCCC1)c1ccc(OCCCN2CCCC2)cc1 [Example 3, 2-Piperidin-1-yl-1-[4-(3-pyrrolidin-1-yl-propoxy)-phenyl]-ethanone]
0.1 to 100 nM	C[C@@H]1CCCN1CCCOc1ccc(C(=O)CN2CCc3ccccc3C2)cc1 [Example 9, 2-(3,4-Dihydro-1H-isoquinolin-2-yl)-1-{4-[3-((R)-2-methyl-pyrrolidin-1-yl)-propoxy]-phenyl}-ethanone]
0.1 to 100 nM	CC1CCCN1CCCOc1ccc(C(=O)C(C)N2CCN(c3ccccc3)CC2)cc1 (stereo not drawn) [Example 28, 1-{4-[3-(2-Methyl-pyrrolidin-1-yl)-propoxy]-phenyl}-2-(4-phenyl-piperazin-1-yl)-propan-1-one]
0.1 to 100 nM	CC(C)N1CCN(CCCOc2ccc(C(=O)CN3CCCCC3)cc2)CC1 [Example 16, 1-{4-[3-(4-Isopropyl-piperazin-1-yl)-propoxy]-phenyl}-2-piperidin-1-yl-ethanone]
0.1 to 100 nM	O=C(CN1CCc2ccccc2C1)c1ccc(OCCCN2CCCCC2)cc1 [Example 4, 2-(3,4-Dihydro-1H-isoquinolin-2-yl)-1-[4-(3-piperidin-1-yl-propoxy)-phenyl]-ethanone]

Compound	Ki
CC(C(=O)c1ccc(OCCCN2CCCC2)cc1)N1CCCC1 (stereo not drawn) [Example 23, 2-Pyrrolidin-1-yl-1-[4-(3-pyrrolidin-1-yl-propoxy)-phenyl]-propan-1-one]	0.1 to 100 nM
CC(C(=O)c1ccc(OCCCN2CCCCC2)cc1)N1CCSCC1 (stereo not drawn) [Example 34, 1-[4-(3-Piperidin-1-yl-propoxy)-phenyl]-2-thiomorpholin-4-yl-propan-1-one]	0.1 to 100 nM
CC(C(=O)c1ccc(OCCCN2CCCC2)cc1)N1CCCCC1 (stereo not drawn) [Example 14, 2-Piperidin-1-yl-1-[4-(3-pyrrolidin-1-yl-propoxy)-phenyl]-propan-1-one]	0.1 to 100 nM
CC(=O)N1CCN(C(C)C(=O)c2ccc(OCCCN3CCCC3C)cc2)CC1 (stereo not drawn) [Example 33, 2-(4-Acetyl-piperazin-1-yl)-1-{4-[3-(2-methyl-pyrrolidin-1-yl)-propoxy]-phenyl}-propan-1-one]	0.1 to 100 nM
CC1CCCN1CCCOc1ccc(C(=O)C(C)N2CCCC2)cc1 (stereo not drawn) [Example 24, 1-{4-[3-(2-Methyl-pyrrolidin-1-yl)-propoxy]-phenyl}-2-pyrrolidin-1-yl-propan-1-one]	0.1 to 100 nM
CON=C(c1ccc(OCCCN2CCCC2C)cc1)C(C)N1CCCCC1 (stereo not drawn) [Example 169]	0.1 to 100 nM
CON=C(c1ccc(OCCCN2CCCCC2)cc1)C(C)N1CCCCC1 (stereo not drawn) [Example 163]	0.1 to 100 nM
CC1CCCN1CCCOc1ccc(C(=O)C(C)N2CCSCC2)cc1 (stereo not drawn) [Example 35, 1-{4-[3-(2-Methyl-pyrrolidin-1-yl)-propoxy]-phenyl}-2-thiomorpholin-4-yl-propan-1-one]	0.1 to 100 nM
CC(=O)N1CCN(C(C)C(=O)c2ccc(OCCCN3CCCCC3)cc2)CC1 (stereo not drawn) [Example 32, 2-(4-Acetyl-piperazin-1-yl)-1-[4-(3-piperidin-1-yl-propoxy)-phenyl]-propan-1-one]	0.1 to 100 nM
CC(C(=O)c1ccc(OCCCN2CCCC2)cc1)N1CCOCC1 (stereo not drawn) [Example 25, 2-Morpholin-4-yl-1-[4-(3-pyrrolidin-1-yl-propoxy)-phenyl]-propan-1-one]	0.1 to 100 nM
CC(C(=O)c1ccc(OCCCN2CCCCC2)cc1)N1CCOCC1 (stereo not drawn) [Example 26, 2-Morpholin-4-yl-1-[4-(3-piperidin-1-yl-propoxy)-phenyl]-propan-1-one]	0.1 to 100 nM
CC(C(=O)c1ccc(OCCCN2CCCC2)cc1)N1CCN(c2ccccc2)CC1 (stereo not drawn) [Example 30, 2-(4-Phenyl-piperazin-1-yl)-1-[4-(3-pyrrolidin-1-yl-propoxy)-phenyl]-propan-1-one]	0.1 to 100 nM
CC(C(=O)c1ccc(OCCCN2CCCCC2)cc1)N1CCN(c2ccccc2)CC1 (stereo not drawn) [Example 31, 2-(4-Phenyl-piperazin-1-yl)-1-[4-(3-piperidin-1-yl-propoxy)-phenyl]-propan-1-one]	0.1 to 100 nM
